Earlier results in patent US20200281206A1, “SEXUAL ATTRACTION PHEROMONE OF TRIBOLIUM CASTANEUM AND INSECT CONTROL DEVICE” (YPF TECNOLOGÍA S.A., priority 2019, published 2020).

System: Tribolium castaneum
Conditions: prior-art finding

## CCC(C)CCCC(C)CCC=O (stereo not shown) [4,8-dimethyldecanal]
  sex of insects attracted: attracts both male and female insects
